Details: 100 kPa, Liquid; for viscosity: Falling or rolling sphere viscometry; for mass density: Vibrating tube method

CCn1cc[n+](C)c1.[Cl-].[Cl][Al]([Cl])[Cl] [1-ethyl-3-methyl-1H-imidazolium tetrachloroaluminate]
Details	mass density [kg/m3]	viscosity [mPa·s]
293.15 K	1299.32	20.62
303.15 K	1291.13	15.69
313.15 K	1283.05	12.31
323.15 K	1275.03	9.952
333.15 K	1267.1	8.214
343.15 K	1259.22	6.927
353.15 K	1251.41	5.945

Source: the NIST ThermoML archive (doi:10.1021/acs.jced.7b00702)
